# Source: publication PMC11470524, “A venom peptide-induced NaV channel modulation mechanism involving the interplay between fixed channel charges and ionic gradients” (The Journal of Biological Chemistry, 2024)
# Where two headings read alike, the source gives them in different places. Where no end group is shown, it is not given here.
# How the values were obtained:
# NaV channels = conditions: cited from earlier work
# human NaV1.7 channel [1] = biological target: T1, human NaV1.7 channel (Homo sapiens, UniProt Q15858); experiment: Cumulative concentration-response, persistent (non-inactivating) current I40ms/Ipeak, NaV1.7; format: cell-based; conditions: NaV1.7, HEK293, ratio of current at 40 ms to peak current, mean ± SD
# human NaV1.7 channel [2] = biological target: T1, human NaV1.7 channel; experiment: Whole-cell current-voltage (I-V) relationship, NaV1.7, standard solution; format: cell-based
# Procedure: Data are expressed as mean ± SD.
# Whole-cell current-voltage (I-V) recordings were recorded with an EPC 10 USB Heka patch clamp amplifier or an Axon 700B amplifier (Axon Instruments). Currents were filtered (−3 dB, 4-pole Bessel) at 2 kHz and sampled at 50 kHz. […] Leak subtraction was done using a p/4 protocol (4 pulses at a delay of 100 μs). Cell responses were accepted for analysis if the series resistance was ≤ 12 MΩ and was compensated for by ≥ 60%. […] The extracellular solution contained (in mM): 140 NaCl, 5 KCl, 1 MgCl2, 10 Hepes, and 10 D-glucose, adjusted to pH 7.4 with NaOH, whereas the intracellular solution contained (in mM) the following: 140 CsCl, 10 NaCl, 2 10 Hepes, and 5 EGTA adjusted to pH 7.4 with CsOH.
# Whole-cell conductance (G) was calculated using the following relation.(1) G=I/(Vm−Vrev) Where, I is the peak current, Vm is the corresponding step voltage and Vrev is the reversal potential (potential where current direction changes).
# T1 sequence (Q15858 whole entry): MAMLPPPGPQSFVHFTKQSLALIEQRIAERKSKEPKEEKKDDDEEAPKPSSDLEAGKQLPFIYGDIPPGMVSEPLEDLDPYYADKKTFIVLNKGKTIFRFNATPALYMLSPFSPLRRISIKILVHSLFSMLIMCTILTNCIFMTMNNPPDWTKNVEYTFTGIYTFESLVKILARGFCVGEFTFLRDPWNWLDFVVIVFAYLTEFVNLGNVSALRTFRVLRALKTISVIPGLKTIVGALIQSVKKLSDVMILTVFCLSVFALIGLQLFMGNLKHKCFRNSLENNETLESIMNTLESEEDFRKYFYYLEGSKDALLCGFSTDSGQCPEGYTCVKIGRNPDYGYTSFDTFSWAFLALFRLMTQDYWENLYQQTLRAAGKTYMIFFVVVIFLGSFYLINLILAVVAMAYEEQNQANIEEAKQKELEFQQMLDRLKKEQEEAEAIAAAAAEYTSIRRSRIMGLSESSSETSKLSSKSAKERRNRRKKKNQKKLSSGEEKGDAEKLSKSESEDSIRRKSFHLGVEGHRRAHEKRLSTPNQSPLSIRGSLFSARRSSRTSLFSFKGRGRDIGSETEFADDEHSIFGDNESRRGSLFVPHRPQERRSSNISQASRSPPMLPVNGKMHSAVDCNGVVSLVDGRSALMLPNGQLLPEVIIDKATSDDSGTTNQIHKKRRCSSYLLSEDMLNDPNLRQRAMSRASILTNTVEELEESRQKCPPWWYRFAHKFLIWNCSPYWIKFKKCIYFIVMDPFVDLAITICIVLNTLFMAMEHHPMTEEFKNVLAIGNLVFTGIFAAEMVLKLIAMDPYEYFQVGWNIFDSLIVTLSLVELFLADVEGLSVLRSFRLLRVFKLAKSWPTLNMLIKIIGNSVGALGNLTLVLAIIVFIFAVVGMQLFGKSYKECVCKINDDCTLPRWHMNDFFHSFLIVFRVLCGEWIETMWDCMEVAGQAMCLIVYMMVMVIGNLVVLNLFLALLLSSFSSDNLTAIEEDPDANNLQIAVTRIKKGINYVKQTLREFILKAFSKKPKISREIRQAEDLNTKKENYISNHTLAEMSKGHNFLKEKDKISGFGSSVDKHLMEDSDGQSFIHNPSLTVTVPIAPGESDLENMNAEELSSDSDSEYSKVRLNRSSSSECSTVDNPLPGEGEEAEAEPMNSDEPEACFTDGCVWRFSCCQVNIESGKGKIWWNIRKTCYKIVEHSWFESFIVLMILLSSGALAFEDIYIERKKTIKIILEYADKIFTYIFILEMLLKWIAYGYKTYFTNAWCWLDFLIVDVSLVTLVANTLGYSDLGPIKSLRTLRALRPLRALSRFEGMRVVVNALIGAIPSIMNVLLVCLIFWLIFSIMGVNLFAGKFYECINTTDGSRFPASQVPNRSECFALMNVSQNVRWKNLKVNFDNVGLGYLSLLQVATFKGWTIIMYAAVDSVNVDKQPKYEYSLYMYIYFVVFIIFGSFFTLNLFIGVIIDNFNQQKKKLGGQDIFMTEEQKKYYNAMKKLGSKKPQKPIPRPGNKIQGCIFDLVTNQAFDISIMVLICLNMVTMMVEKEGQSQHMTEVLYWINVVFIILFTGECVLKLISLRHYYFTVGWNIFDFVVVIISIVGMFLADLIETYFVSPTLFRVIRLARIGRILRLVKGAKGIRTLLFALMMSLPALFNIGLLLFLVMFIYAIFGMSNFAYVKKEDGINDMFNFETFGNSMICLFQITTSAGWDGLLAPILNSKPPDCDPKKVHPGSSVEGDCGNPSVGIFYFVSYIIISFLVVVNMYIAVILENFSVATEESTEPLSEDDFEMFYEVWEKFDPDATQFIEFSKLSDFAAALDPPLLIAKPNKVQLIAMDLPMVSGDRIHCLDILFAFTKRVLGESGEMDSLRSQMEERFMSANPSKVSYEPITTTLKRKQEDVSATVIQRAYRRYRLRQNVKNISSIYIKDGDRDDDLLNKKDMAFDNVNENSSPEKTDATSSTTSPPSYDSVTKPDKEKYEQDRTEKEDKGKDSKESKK
compound,measurement,setting,value
COc1ccc(C(=O)O[C@H]2CC[C@@]3(C)[C@@H]4CC[C@H]5[C@]6(O)C[C@H](O)[C@@]7(O)[C@@H](CN8C[C@@H](C)CC[C@H]8[C@@]7(C)O)[C@]6(O)C[C@@]53O[C@]24O)cc1OC [veratridine],Effect on NaV channels,"NaV channels; ref [15], [17], [18]",direct channel activators (agonists)
LAPIFALLLLSGLFSLPALQHYIAANYIN-NH2 [Ta3a[E24A + K25A]],"Efficacy (maximum response), I40ms/Ipeak",human NaV1.7 channel [1],0.35 ± 0.33
same,I-V profile versus control,"human NaV1.7 channel [2]; 30 nM analog, n = 4 cells",indistinguishable from control
same,Leftward shift of V1/2,"human NaV1.7 channel [2]; 1 μM analog, n = 7 cells",−4.5 mV
same,Leftward shift of Vrev,"human NaV1.7 channel [2]; 1 μM analog, n = 7 cells",−28 mV
same,Reduction in peak current,"human NaV1.7 channel [2]; 1 μM analog, n = 7 cells",~2 fold
ProTx-II: tarantula toxin,Effect on NaV channels,"NaV channels; ref [20], [21]",inhibit NaV channel currents by stabilizing S4 helices in the resting state
batrachotoxin,Effect on NaV channels,"NaV channels; ref [15], [17], [18]",direct channel activators (agonists)
same,Effect on ion selectivity,"NaV channels; ref [15], [17]",alter ion selectivity
huwentoxin-IV,Effect on NaV channels,"NaV channels; ref [20], [21]",inhibit NaV channel currents by stabilizing S4 helices in the resting state
